Results on 6 molecules are retold here after patent publication US9428568B2, “Compositions and methods for modulating cell-cell fusion via intermediate-conductance calcium-activated potassium channels” (BOEHRINGER INGELHEIM INTERNATIONAL GMBH, priority 2008, dated 2016).

For assay [1], the system named is bone marrow-derived macrophages from WT mice. As to the kind of experiment: Osteoclastogenesis / cell fusion of bone marrow-derived macrophages of WT mice under M-CSF+RANKL (TRAP+ osteoclast-like cells). The assay is classed as cell-based, mouse. The source says: Bone marrow- and spleen-derived mouse osteoclasts. These cells were generated from four- to twelve-week-old sk4^+/+ and sk4^−/− mice as previously described (Cui et al. (2007) Proc. Natl. Acad. Sci. USA 104:14436-14441; Epub 2007 Aug. 28). Bone marrow and spleen cells were isolated, mechanically dissociated and cultured at a density of 1.33×10^6 cells per cm^2 in MEM containing 10% heat-inactivated fetal bovine serum (HyClone, Logan, Utah), 100 units/ml penicillin-streptomycin (Gibco Invitrogen, Carlsbad, Calif.), 1% MEM vitamins, 1% glutamine, and 30 ng/ml M-CSF (PeproTech, Inc. Rocky Hill, N.J.). RANKL (PeproTech, Inc.) was added at a concentration of 40 ng/ml. Media was changed every three days. To assess the formation of an actin ring, a landmark of osteoclast activity, cells were cultured in the presence of M-CSF (20 ng/ml) and RANKL (40 ng/ml) on glass slides for 8 days, fixed and reacted with phalloidin-Alexa 568 and Topro-3. To further assess resorptive activity, cells were cultured on Osteologic slides that are coated with artificial bone made of calcium-phosphate crystals. After 8 days, cells were lysed and the substrates stained with silver nitrate according to the supplier's instructions. The resorbed areas on slides were recorded by histomorphometry.

Assay [2] has as its system human PBMCs. As to the kind of experiment: Human osteoclastogenesis / cell fusion of PBMCs under M-CSF+RANKL stimulation (TRAP+ osteoclast-like cells). Conditions: for IC50: PBMC, read-out: inhibition of cell fusion, IC50; for osteoclast number / osteoclast surface area: dose-dependent. The assay is classed as cell-based. As to the method:
Human osteoclasts. These cells were generated using normal peripheral blood blood (Allcells, Emeryville, Calif.). Peripheral blood monocytes were isolated using Ficoll-Paque and cultured at a concentration of 3×10^6 cells/ml in MEME supplemented with 10% FCS, recombinant human M-CSF (25 ng/ml) and recombinant human RANKL (40 ng/ml). The medium was changed once a week.

Assay [3] addresses SK4 channels (Homo sapiens, UniProt O15554). To be noted: cited from earlier work.
Where [4] appears, read: general statement in the definition of SK4 channels.

As a reminder, the IC50 is the concentration at which inhibition is half-maximal.

“Also recorded” adds a separate entry of the source. Like-named read-outs stand apart in the source and are kept apart here.

For `NC(=O)C(c1ccccc1)(c1ccc(F)cc1)c1ccc(F)cc1` [ICA-17043, 2,2-bis(4-fluorophenyl)-2-phenylacetamide], the “osteoclastogenesis (surface area of TRAP+ osteoclast-like cells, POC relative to no compound control)” value in assay [1] (bone marrow-derived macrophages of WT (SK4+/+) mice, FIGS. 7A-B, five replicates) is given as “attenuated osteoclastogenesis in a dose dependent manner; also recorded: prevent osteoclastogenesis in a dose-dependent manner”. Moreover, the “concentration at which cell fusion was significantly inhibited (TRAP-stained images)” value in assay [1] (bone marrow-derived macrophages of WT mice, FIG. 7C) was 0.36 µM. Also, the “human osteoclastogenesis in vitro (surface area of TRAP+ osteoclast-like cells, POC relative to no compound control)” value in assay [2] (FIGS. 10A-B, four replicates) is given as “inhibited human osteoclastogenesis in vitro in a dose-dependent manner; also recorded: prevent osteoclastogenesis in a dose-dependent manner”. The IC50 in assay [2] (FIGS. 10A-B) stood at 300 nM. In addition, in assay [2], the osteoclast number entry was “decreased” and the osteoclast surface area entry was “decreased”.
In the case of `Clc1ccccc1C(c1ccccc1)(c1ccccc1)n1cccn1` [TRAM-34, 1-[(2-chlorophenyl)diphenylmethyl]-1H-pyrazole], the IC50 in assay [2] (FIGS. 10A-B) worked out at 800 nM. Besides, in assay [2], the osteoclast number result is recorded as “decreased” and the osteoclast surface area entry is reported as “decreased”.
Turning to `CC(=O)N1CCN(c2ccc(OCC3COC(Cn4ccnc4)(c4ccc(Cl)cc4Cl)O3)cc2)CC1` (stereo not shown) [ketoconazole], in assay [3] (setting [4]), the “block of SK4 channels” value is on record as “not blocked”.
charybdotoxin: the “block of SK4 channels” value in assay [3] (setting [4]) is given as “blocked”.
iberiotoxin: the “block of SK4 channels” value in assay [3] (setting [4]) is recorded as “not blocked”.
As for `Clc1ccccc1C(c1ccccc1)(c1ccccc1)n1ccnc1` [clotrimazole, 1-[(2-chlorophenyl)-diphenylmethyl]-1H-imidazole], the “block of SK4 channels” value in assay [3] is given as “blocked”.
